Data set [1] is described as follows: Water solubility in aqueous buffer. Particulars: aqueous buffer 10 mM Tris-HCl, pH 7.4, 20° C. The procedure: The solid compounds were added stepwise to the buffer solution. More substance is added once all the suspended material is dissolved until an equilibrium between undissolved and dissolved substance is reached. The suspension was mixed using a shaker (Heidolph Reax 2000) and treated 5 min in an ultrasound bath (Bandelin, Sonorex Super RK255H).

The nature of data set [2]: Complex stability (transmetallation) against Zn2+ in phosphate buffer. The following applies: 72 hours, 2.5 mM Zn^2+, 26 mM phosphate buffer, 37° C., pH 7.4. The text has this:
If test compounds are instable under these conditions, transmetallation during this test would lead to the formation of the Zn^2+ complex of the test item, while Gd^3+ is released and precipitated as highly insoluble GdPO4.

Data set [3] can be described thus: Relaxivity measurements at 1.41 T in water. The format is physicochemical. The following applies: 37° C., normalized to Gd. In outline: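 T1 by inversion recovery and T2 by CPMG at 1.41 T (60 MHz), 37° C, relaxation delay ≥5×T1. Three Gd concentrations between 0.05 and 2 mM; relaxivities derived from measured relaxation rates in water.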
A short description of data set [4]: Relaxivity measurements at 1.41 T in human plasma. The format is physicochemical. Particulars: 37° C., normalized to Gd. In a few lines:
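T1 determined by inversion recovery (8 inversion-time steps) and T2 by CPMG sequence, both with relaxation delay ≥5×T1. Each relaxivity used three Gd concentrations between 0.05 and 2 mM. Relaxivities were derived from relaxation rates measured in water and plasma.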

Data set [5] can be described thus: Partition coefficient (log P butanol/buffer). Type of data set: physicochemical. Particulars: 1-butanol / 50 mM Tris-HCl, pH 7.4, room temperature.
For data set [6], the system named is freshly isolated rat hepatocytes. Nature of the data set: Uptake into freshly isolated rat hepatocytes. Particulars: for Uptake rat hepatocytes: 100 μmol Gd/L, 10 min, 37° C., relative to RC1 (Gd-EOB-DTPA); for Inhibition Rifampicine: rat hepatocyte uptake, test item and Rifampicine 1:1, each 100 μM.
For another data set, the target named is T1, OATP1B1 (Homo sapiens, UniProt Q9Y6L6).
T1 sequence (Q9Y6L6 1-691): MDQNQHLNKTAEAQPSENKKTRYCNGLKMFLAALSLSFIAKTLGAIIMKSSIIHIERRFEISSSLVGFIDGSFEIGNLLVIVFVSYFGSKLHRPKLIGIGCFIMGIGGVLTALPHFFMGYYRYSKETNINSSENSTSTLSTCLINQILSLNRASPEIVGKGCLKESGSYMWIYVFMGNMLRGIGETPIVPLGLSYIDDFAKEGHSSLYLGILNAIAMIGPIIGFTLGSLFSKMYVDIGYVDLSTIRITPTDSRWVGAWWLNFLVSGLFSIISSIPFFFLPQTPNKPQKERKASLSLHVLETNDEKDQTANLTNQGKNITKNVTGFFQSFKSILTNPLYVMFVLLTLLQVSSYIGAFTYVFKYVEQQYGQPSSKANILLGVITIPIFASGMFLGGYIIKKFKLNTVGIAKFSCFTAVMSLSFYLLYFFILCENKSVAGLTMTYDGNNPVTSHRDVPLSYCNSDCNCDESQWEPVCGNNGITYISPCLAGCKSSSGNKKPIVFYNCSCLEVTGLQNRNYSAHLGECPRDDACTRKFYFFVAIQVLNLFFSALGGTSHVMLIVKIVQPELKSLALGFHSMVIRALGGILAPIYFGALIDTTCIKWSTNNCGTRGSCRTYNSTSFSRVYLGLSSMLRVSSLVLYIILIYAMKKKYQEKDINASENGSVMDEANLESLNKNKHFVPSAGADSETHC
Nature of the data set: Uptake into stable transfected OATP1B1 HEK 293 cells. The following applies: for Uptake into OATP1B1-HEK 293 cells: 40 min incubation, relative to RC1 (Gd-EOB-DTPA); for Inhibition Rifampicine: uptake into OATP1B1-HEK 293 cells. Type of data set: cell-based. In a few lines: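 Stably transfected OATP1B1 HEK293 cells incubated 40 min without shaking with test item at 100 µM final in transport buffer, in triplicate. Cells then washed with cold PBS; gadoxetate run on the same plate as reference.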

Another data set has as its target T2, OATP1B3 (Homo sapiens, UniProt Q9NPD5).
T2 sequence (Q9NPD5 1-702): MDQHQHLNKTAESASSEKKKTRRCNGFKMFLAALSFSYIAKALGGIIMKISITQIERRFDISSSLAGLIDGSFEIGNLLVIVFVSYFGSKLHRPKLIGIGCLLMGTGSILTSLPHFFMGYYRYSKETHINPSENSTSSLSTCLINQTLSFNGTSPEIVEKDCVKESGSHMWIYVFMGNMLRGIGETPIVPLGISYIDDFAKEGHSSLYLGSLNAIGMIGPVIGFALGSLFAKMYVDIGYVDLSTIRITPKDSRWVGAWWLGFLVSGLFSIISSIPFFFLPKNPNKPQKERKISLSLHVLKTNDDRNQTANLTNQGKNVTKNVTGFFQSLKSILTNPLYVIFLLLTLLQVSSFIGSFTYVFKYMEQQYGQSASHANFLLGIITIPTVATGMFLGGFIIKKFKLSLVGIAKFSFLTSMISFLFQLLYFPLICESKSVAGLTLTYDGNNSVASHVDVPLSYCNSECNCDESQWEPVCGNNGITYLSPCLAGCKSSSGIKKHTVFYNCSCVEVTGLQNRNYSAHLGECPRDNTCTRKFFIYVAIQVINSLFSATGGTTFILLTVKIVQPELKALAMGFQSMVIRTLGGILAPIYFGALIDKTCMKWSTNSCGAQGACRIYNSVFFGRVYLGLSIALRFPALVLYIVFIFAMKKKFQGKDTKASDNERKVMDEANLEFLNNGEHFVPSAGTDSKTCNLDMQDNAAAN
Kind of data set: Uptake into stable transfected OATP1B3 HEK 293 cells. Type of data set: cell-based. Particulars: for Uptake into OATP1B3-HEK 293 cells: 40 min incubation, relative to RC1 (Gd-EOB-DTPA); for Inhibition Rifampicine: uptake into OATP1B3-HEK 293 cells. In a few lines:
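HEK 293 cells stably transfected with human OATP1B3 were incubated for 40 min with test items at 100 μM final in transport buffer, in triplicate, then washed with cold PBS. Gadoxetate (Gd-EOB-DTPA) served as the reference standard on the same plate.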

Take `CCOCCOCCOc1ccc(CC(C(=O)O)N2CCN(CC(=O)[O-])CCN(C(C)C(=O)[O-])CCN(CC(=O)[O-])CC2)cc1.[Gd+3]` (single isomer, unassigned) [Example 6, gadolinium 2-[7-(1-carboxy-2-{4-[2-(2-ethoxyethoxy)ethoxy]phenyl}ethyl)-4,10-bis(carboxylatomethyl)-1,4,7,10-tetraazacyclododecan-1-yl]propanoate]: in data set [1], the Solubility was over 217 mM. Besides, in data set [2], the Transmetallation stability is 102%. The compound further registered a r1 water in data set [3] of 4.3 L/mmol/s. The compound further showed a r1 human plasma in data set [4] of 6.6 L/mmol/s. Moreover, the “Log P (partition coefficient butanol/buffer)” value in data set [5] was −1.44. In data set [6], the Uptake rat hepatocytes is listed as 62 % of RC1 and the “Inhibition Rifampicine” value turned out to be 96 % inhibition.

The compound `CCOCCOc1ccc(CC(C(=O)O)N2CCN(CC(=O)[O-])CCN(C(CC)C(=O)[O-])CCN(CC(=O)[O-])CC2)cc1.[Gd+3]` (single isomer, unassigned) [Example 7, gadolinium 2-[7-{1-carboxy-2-[4-(2-ethoxyethoxy)phenyl]ethyl}-4,10-bis(carboxylatomethyl)-1,4,7,10-tetraazacyclododecan-1-yl]butanoate] showed a Solubility in data set [1] of over 243 mM. In data set [2], this compound had a Transmetallation stability of 101%. Besides, the r1 water in data set [3] amounted to 4.5 L/mmol/s. Further, the r1 human plasma in data set [4] was determined as 7.4 L/mmol/s. On OATP1B1, the “Uptake into OATP1B1-HEK 293 cells” value is on record as 217 % of RC1 and the “Inhibition Rifampicine” value is 91 % inhibition. At OATP1B3, the “Uptake into OATP1B3-HEK 293 cells” value is given as 76 % of RC1 and the “Inhibition Rifampicine” value is 99 % inhibition. Besides, the “Log P (partition coefficient butanol/buffer)” value in data set [5] is reported as −1.09. For the same compound, in data set [6], the Uptake rat hepatocytes is 89 % of RC1 and the “Inhibition Rifampicine” value was 99 % inhibition.

Consider `CCOCCOc1ccc(CC(C(=O)O)N2CCN(CC(=O)[O-])CCN(C(CC)C(=O)[O-])CCN(CC(=O)[O-])CC2)cc1.[Gd+3]` (single isomer, unassigned) [Example 8, gadolinium 2-[7-{1-carboxy-2-[4-(2-ethoxyethoxy)phenyl]ethyl}-4,10-bis(carboxylatomethyl)-1,4,7,10-tetraazacyclododecan-1-yl]butanoate], for which the Solubility in data set [1] turned out to be 117 mM. In data set [2], the Transmetallation stability came to 102%. Also, the r1 water in data set [3] turned out to be 4.5 L/mmol/s. Further, in data set [4], the r1 human plasma was 7.2 L/mmol/s. Further, on OATP1B1, the “Uptake into OATP1B1-HEK 293 cells” value is 271 % of RC1 and the “Inhibition Rifampicine” value was 90 % inhibition. At OATP1B3, the “Uptake into OATP1B3-HEK 293 cells” value was 90 % of RC1 and the “Inhibition Rifampicine” value turned out to be 99 % inhibition. Besides, the “Log P (partition coefficient butanol/buffer)” value in data set [5] is −1.04. Besides, in data set [6], the Uptake rat hepatocytes is recorded as 83 % of RC1 and the “Inhibition Rifampicine” value turned out to be 98 % inhibition.

In the case of `CCOCCOCCOc1ccc(CCCC(C(=O)O)N2CCN(C(CO)C(=O)[O-])CCN(C(CO)C(=O)[O-])CCN(C(CO)C(=O)[O-])CC2)cc1.[Gd+3]` (stereo not drawn) [Example 17, gadolinium-2,2′,2″-{10-[1-carboxy-4-{4-[2-(2-ethoxyethoxy)ethoxy]phenyl}butyl]-1,4,7,10-tetraazacyclododecane-1,4,7-triyl}tris(3-hydroxypropanoate)], the Solubility in data set [1] is over 217 mM. The compound further showed a Transmetallation stability in data set [2] of 98%. In data set [3], this compound showed a r1 water of 5.3 L/mmol/s. In data set [4], the r1 human plasma came to 10.1 L/mmol/s. Moreover, the results for the “Inhibition Rifampicine” value (on OATP1B1; on OATP1B3; in data set [6]) were 88 % inhibition, 98 % inhibition and 91 % inhibition, respectively. Also, the Uptake rat hepatocytes in data set [6] is 71 % of RC1.

`CCOCCOCCOc1ccc(CC(C(=O)O)N2CCN(C(CO)C(=O)[O-])CCN(C(CO)C(=O)[O-])CCN(C(CO)C(=O)[O-])CC2)cc1.[Gd+3]` (stereo not drawn) [Example 22, gadolinium 2,2′,2″-{10-[1-carboxy-2-{4-[2-(2-ethoxyethoxy)ethoxy]phenyl}ethyl]-1,4,7,10-tetraazacyclododecane-1,4,7-triyl}tris(3-hydroxypropanoate)] returned a Solubility in data set [1] of over 308 mM. For the same compound, in data set [2], the Transmetallation stability came to 96%. The same compound had a r1 water in data set [3] of 5.4 L/mmol/s. Besides, the r1 human plasma in data set [4] came out at 7.7 L/mmol/s. On OATP1B1, the “Uptake into OATP1B1-HEK 293 cells” value is 77 % of RC1 and the “Inhibition Rifampicine” value was determined as 51 % inhibition. Further, at OATP1B3, the “Uptake into OATP1B3-HEK 293 cells” value is given as 46 % of RC1 and the “Inhibition Rifampicine” value was determined as 96 % inhibition. Further, in data set [6], the Uptake rat hepatocytes was 41 % of RC1 and the “Inhibition Rifampicine” value came out at 83 % inhibition.

Regarding `CCCOc1ccc(CC(C(=O)O)N2CCN(CC(=O)[O-])CCN(CC(=O)[O-])CCN(CC(=O)[O-])CC2)cc1.[Gd+3]` (stereo not drawn) [Example 48, gadolinium 2,2′,2″-{10-[1-carboxy-2-(4-propoxyphenyl)ethyl]-1,4,7,10-tetraazacyclododecane-1,4,7-triyl}triacetate], in data set [1], the Solubility came out at 16 mM. The compound further registered a Transmetallation stability in data set [2] of 99%. In data set [3], this compound yielded a r1 water of 4.0 L/mmol/s. Also, in data set [4], the r1 human plasma was 9.3 L/mmol/s. For the same compound, on OATP1B1, the “Uptake into OATP1B1-HEK 293 cells” value was 240 % of RC1 and the “Inhibition Rifampicine” value is 92 % inhibition. At OATP1B3, the “Uptake into OATP1B3-HEK 293 cells” value is listed as 11 % of RC1 and the “Inhibition Rifampicine” value is 81 % inhibition. In data set [6], the Uptake rat hepatocytes was 77 % of RC1 and the “Inhibition Rifampicine” value was determined as 98 % inhibition.

In general, Solubility refers to the concentration that dissolves in the medium under given conditions.

These data come from patent US20260083864A1, “CONTRAST AGENTS FOR USE IN DIAGNOSTIC COMPUTED TOMOGRAPHY IMAGING” (Bayer Aktiengesellschaft, priority 2022, published 2026).
